Assay [1] can be described thus: Inhibition of PI3K assessed as amount of ADP produced preincubated with compound and L-alpha-phosphatidylinositol for 5 mins by Glo Max luminescent kinase assay.
The test system of the next assay is T47D. The experiment in a line: Antiproliferative activity against human T47D cells after 48 hrs by MTT assay. The class given is functional, cell-based.
Another assay relates to MCF7. In words: Antiproliferative activity against human MCF7 cells after 48 hrs by MTT assay. The class given is functional, cell-based. To be noted: MCF7, 48 h.
For the next assay, the system named is SK-BR-3. In words: Antiproliferative activity against human SKBR3 cells after 48 hrs by MTT assay. The class given is functional, cell-based. To be noted: SK-BR-3, 48 h.

Bounds are passed on as bounds.

`COc1cc(N(C)C)ccc1-c1nc2c(c(=O)n(C)c(=O)n2C)n1-c1cccc(F)c1`: the IC50 in assay [1] is 22 µM. For the compound `CN(C)c1ccc(-c2nc3c(c(=O)n(C)c(=O)n3C)n2-c2ccc(Cl)c(Cl)c2)cc1`, in assay [1], the IC50 was greater than 30 µM. Still for that read-out and setting: the same measure for `COc1ccc(-n2c(-c3cncc(NS(=O)(=O)c4ccc(C)cc4)c3)nc3c2c(=O)n(C)c(=O)n3C)cc1`: 0.22 µM; for `COc1ccc(-n2c(-c3cncc(NS(C)(=O)=O)c3)nc3c2c(=O)n(C)c(=O)n3C)cc1`: 4.5 µM. As for `COc1ccc(-n2c(-c3ccc(NC(C)=O)cc3)nc3c2c(=O)n(C)c(=O)n3C)cc1`, the IC50 was 0.15 µM in assay [1], 3.7 µM with T47D, 9.4 µM in the assay on MCF7 and greater than 25 µM in the assay on SK-BR-3. For the compound `COc1ccc(-n2c(-c3cnccc3NS(C)(=O)=O)nc3c2c(=O)n(C)c(=O)n3C)cc1`, the IC50 in assay [1] was greater than 30 µM.

Regarding `COc1ccc(-n2c(-c3ccc(N(C)C)cc3)nc3c2c(=O)n(C)c(=O)n3C)cc1F`, the IC50 in assay [1] is 22 µM. As to `COc1cc(NC(C)=O)ccc1-c1nc2c(c(=O)n(C)c(=O)n2C)n1-c1ccc(Cl)c(Cl)c1`, the IC50 in assay [1] worked out at 13 µM. In the case of `COc1ccc(-n2c(-c3ccc(NC(C)=O)cc3)nc3c2c(=O)n(C)c(=O)n3C)cc1F`, the IC50 in assay [1] is 0.031 µM; in the assay on T47D it was 1.6 µM; in the assay with MCF7, 2.8 µM; in the assay on SK-BR-3, 11.5 µM. On to `CN(C)c1ccc(-c2nc3c(c(=O)n(C)c(=O)n3C)n2-c2cc(F)cc(F)c2)cc1`, for which, in assay [1], the IC50 amounted to 25 µM. On the same count and under the same terms, the same measure for `CC(=O)Nc1ccc(-c2nc3c(c(=O)n(C)c(=O)n3C)n2-c2ccc(Cl)c(Cl)c2)cc1`: 0.28 µM; for `CC(=O)Nc1ccc(-c2nc3c(c(=O)n(C)c(=O)n3C)n2-c2ccccc2)cc1`: 12.5 µM. On to `COC(=O)Nc1ccc(-c2nc3c(c(=O)n(C)c(=O)n3C)n2-c2ccc(OC)cc2)cc1`, for which the IC50 was 0.21 µM in assay [1], 1.7 µM with T47D, 4.2 µM with MCF7 and greater than 25 µM in the assay on SK-BR-3. In the case of `CC(=O)Nc1ccc(-c2nc3c(c(=O)n(C)c(=O)n3C)n2-c2ccc(C)cc2)cc1`, in assay [1], the IC50 is 0.37 µM. As for `COc1cc(N(C)C)ccc1-c1nc2c(c(=O)n(C)c(=O)n2C)n1-c1cc(F)cc(F)c1`, in assay [1], the IC50 is 15 µM. Turning to `COc1ccc(-n2c(-c3cccc(NS(C)(=O)=O)c3)nc3c2c(=O)n(C)c(=O)n3C)cc1`, the IC50 in assay [1] stood at 3.2 µM. `COc1ccc(-n2c(-c3ccc(NC(C)=O)cc3)nc3c2c(=O)n(C)c(=O)n3C)cc1OC`: the IC50 in assay [1] came to 0.51 µM. With `CC(=O)Nc1ccc(-c2nc3c(c(=O)n(C)c(=O)n3C)n2-c2cccc(F)c2)cc1`, the IC50 in assay [1] came out at 0.068 µM; in the assay on T47D it was 0.9 µM; with MCF7 it was 1.7 µM; in the assay on SK-BR-3 it was 15.4 µM.

For `COc1ccc(-n2c(-c3cncc(NS(=O)(=O)c4ccccc4)c3)nc3c2c(=O)n(C)c(=O)n3C)cc1`, the IC50 in assay [1] came out at 0.091 µM. Consider `COc1ccc(-n2c(-c3ccc(N(C)C)cc3)nc3c2c(=O)n(C)c(=O)n3C)cc1OC`, for which the IC50 in assay [1] turned out to be 25 µM.

Regarding `COc1ccc(-n2c(-c3ccc(NC(C)=O)c(OC)c3)nc3c2c(=O)n(C)c(=O)n3C)cc1F`, the IC50 in assay [1] was found to be 8.5 µM. As for `CN(C)c1ccc(-c2nc3c(c(=O)n(C)c(=O)n3C)n2-c2cccc(F)c2)cc1`, the 50% inhibitory concentration (IC50) in assay [1] turned out to be 20 µM. Same read-out and setting: the same measure for `COc1ccc(-n2c(-c3ccc(N(C)C)cc3)nc3c2c(=O)n(C)c(=O)n3C)cc1`: 22 µM. Take `CNC(=O)Nc1ccc(-c2nc3c(c(=O)n(C)c(=O)n3C)n2-c2ccc(OC)c(F)c2)cc1`: the IC50 in assay [1] was 0.017 µM; in the assay on T47D it was 4.7 µM; in the assay on MCF7 it was 11.6 µM; with SK-BR-3, greater than 25 µM.

The values above are taken from ChEMBL document CHEMBL1795300, “Fluorescent phosphoinositide 3-kinase inhibitors suitable for monitoring of intracellular distribution” (Bioorg Med Chem, 2011).
